Results from ChEMBL document CHEMBL1128825, “Synthetic inhibitors of interleukin-6 II: 3,5-diaryl pyridines and meta-terphenyls” (Bioorg Med Chem Lett, 1995).
Activity calls are given as the source filed them. The rule behind the calls is not given here.

How the values were obtained:
WEHI265.1 [1] = experiment: In vitro inhibitory activity against lipopolysaccharide (LPS)-induced IL-6 production in murine myelomonocytic uM; type: functional, Mus musculus; parameters: concentration or dose not given beside the values
WEHI265.1 [2] = experiment: In vitro inhibitory activity against lipopolysaccharide (LPS) -induced IL-6 production in murine myelomonocytic uM; cytotoxic; type: functional, cell-based; settings: Mus musculus
Mus musculus [3] = experiment: In vivo inhibition of TNF- alpha after intraperitoneal administration of 25 mpk dose; showed no inhibition; type: functional, organism-based
Mus musculus [4] = experiment: In vivo inhibition of serum IL-1 after i.p. administration of 25 mpk dose; showed no inhibition; type: functional, organism-based
Mus musculus [5] = experiment: In vivo inhibition of serum IL-5 after i.p. administration of 25 mpk dose; showed no inhibition; type: functional, organism-based
Mus musculus [6] = experiment: Effective dose required for in vivo inhibition of serum IL-6.; type: functional
Mus musculus [7] = organism: Mus musculus; experiment: Inhibitory activity against serum IL-6.; type: functional, organism-based
Mus musculus [8] = experiment: In vivo inhibition of serum IL-6 after intraperitoneal administration of 25 mpk dose.; type: functional; settings: ip
Mus musculus [9] = experiment: In vivo inhibition of serum IL-6 after peroral administration of 25 mpk dose.; type: functional; settings: po

Structure (SMILES) | Inhibition (WEHI265.1 [1]) [%] | other results
CN(C)Cc1ccc(-c2cncc(-c3ccc(CN(C)C)cc3)c2)cc1 | 60 | 
Oc1cccc(-c2cncc(-c3cccc(O)c3)c2)c1 | 59 | 
COc1cccc(-c2cccc(-c3cccc(OC)c3)c2)c1 | 24 | 
Oc1ccc(-c2cnc(O)c(-c3ccc(O)cc3)c2)cc1 | 49 | 
Oc1ccc(-c2cncc(Cl)c2)cc1 | 0 | 
Oc1ccc(-c2cccnc2)cc1 | 0 | 
Oc1ccc(-c2cnc(Cl)c(-c3ccc(O)cc3)c2)cc1 | 61 | 
COc1ccc(-c2cncc(-c3ccc(OC)cc3)c2)cc1 | 0 | 
Oc1cccc(-c2cccc(-c3cccc(O)c3)c2)c1 | 21 | 
Oc1ccc(-c2cncc(-c3ccc(O)cc3)c2Cl)cc1 | 60 | 
Oc1ccc(-c2cccc(-c3ccc(O)cc3)n2)cc1 | 23 | 
Oc1ccc(-c2ccc(-c3ccc(O)cc3)nc2)cc1 | 27 | 
Fc1ccc(-c2cccc(-c3ccc(F)cc3)n2)cc1 | 44 | 
Fc1ccc(-c2cncc(-c3ccc(F)cc3)c2)cc1 | 44 | 
Oc1ccccc1-c1cncc(-c2ccccc2O)c1 | 23 | 
CN(C)Cc1ccc(-c2cccc(-c3ccc(CN(C)C)cc3)c2)cc1 |  | inhibition (WEHI265.1 [2]): Toxic
Oc1ccc(-c2cccc(-c3ccc(O)cc3)c2)cc1 | 85 | Activity (Mus musculus [3]): inactive; Activity (Mus musculus [4]): inactive; Activity (Mus musculus [5]): inactive; ED50 (Mus musculus [6]): 1.5 mg/kg; IC50 (Mus musculus [7]): 1500 nM; inhibition in vivo at 25 mg/kg (Mus musculus [8]): 88%
[O-][n+]1cc(-c2ccc(O)cc2)cc(-c2ccc(O)cc2)c1 | 37 | 
COc1ccc(-c2cccc(-c3ccc(OC)cc3)c2)cc1 | 75 | 
COc1ccccc1-c1cccc(-c2ccccc2OC)c1 | 22 | 
Cc1cncc(-c2ccc(O)cc2)c1 | 7 | 
c1ccc(-c2cncc(-c3ccccc3)c2)cc1 | 8 | 
Oc1ccc(-c2cc(-c3ccc(O)cc3)c(Cl)nc2Cl)cc1 | 52 | 
Oc1ccccc1-c1cccc(-c2ccccc2O)c1 | 21 | 
COc1ccc(-c2ccc(-c3ccc(OC)cc3)nc2)cc1 | 30 | 
N#Cc1ncc(-c2ccc(O)cc2)cc1-c1ccc(O)cc1 | 40 | 
COc1ccc(-c2cccc(-c3ccc(OC)cc3)n2)cc1 | 55 | 
Fc1ccc(-c2ccc(-c3ccc(F)cc3)nc2)cc1 | 47 | 
Oc1ccc(-c2cncc(-c3ccc(O)cc3)c2)cc1 | 73 | Activity (Mus musculus [3]): inactive; Activity (Mus musculus [4]): inactive; Activity (Mus musculus [5]): inactive; ED50 (Mus musculus [6]): 2.8 mg/kg; IC50 (Mus musculus [7]): 400 nM; inhibition in vivo at 25 mg/kg (Mus musculus [8]): 63%; inhibition in vivo at 25 mg/kg (Mus musculus [9]): 71%
Oc1ccc(-c2cncc(-c3ccc(O)cc3)n2)cc1 | 55 | 
